Experimental data published in US20090012179A1, “Use of Tyrphostins to Stimulate Neurite Outgrowth” (priority 2004, published 2009).
Entries after “also recorded” stand apart in the source; their conditions may differ.

What was measured:
ERK [1] = test: ERK activation in NS20Y neuroblastoma cells, immunoblotting for dually phosphorylated ERK; type: cell-based, mouse; settings: for Effect of inhibitor pretreatment on A9-stimulated ERK activation: A9 1 μM, 45 minutes; for ERK activation: dually phosphorylated ERK by immunoblotting
PKCζ = target: T1, PKCζ (Homo sapiens, UniProt Q05513); settings: read-out: IC50 for activation of PKCζ; cited from earlier work
T1 sequence (Q05513 1-592): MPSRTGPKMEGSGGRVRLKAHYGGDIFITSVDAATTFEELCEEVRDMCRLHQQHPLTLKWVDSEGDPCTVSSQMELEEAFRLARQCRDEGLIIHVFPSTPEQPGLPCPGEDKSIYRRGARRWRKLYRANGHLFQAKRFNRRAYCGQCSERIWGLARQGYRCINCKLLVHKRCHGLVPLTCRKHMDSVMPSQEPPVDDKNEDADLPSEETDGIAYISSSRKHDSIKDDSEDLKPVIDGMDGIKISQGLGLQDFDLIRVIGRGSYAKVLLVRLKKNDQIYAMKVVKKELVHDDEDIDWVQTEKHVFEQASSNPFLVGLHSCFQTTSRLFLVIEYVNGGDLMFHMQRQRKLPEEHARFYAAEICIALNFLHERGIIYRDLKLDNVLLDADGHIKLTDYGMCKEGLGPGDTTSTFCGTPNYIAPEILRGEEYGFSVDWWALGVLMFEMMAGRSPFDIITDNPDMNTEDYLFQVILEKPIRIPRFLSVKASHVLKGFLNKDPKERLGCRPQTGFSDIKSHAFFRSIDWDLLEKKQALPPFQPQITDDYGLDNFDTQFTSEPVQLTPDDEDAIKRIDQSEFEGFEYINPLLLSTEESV

SH-SY5Y cells = test: Neurite length in NGF-treated SH-SY5Y neuroblastoma cells; type: cell-based, human
Method: Analysis of neurite length in SH-SY5Y neuroblastoma cells: SH-SY5Y neuroblastoma cells develop axonal-like processes on treatment with NGF. For analysis of process length, cells (20 fields/well) are randomly photographed at 96 and 168 hours. Neurite lengths are measured on photographic prints using a Houston Instrument HI-PAD digitizing tablet connected to a computer with appropriate software (Bioquant IV); only processes more than twice the cell body length are measured. Data from identically treated wells are combined. […] Histograms are compared using a Mann-Whitney U test (α=0.05), which makes no assumptions about the shape of the distribution.
As disclosed herein, high and sustained ERK activation induces neurite growth in […] neuroblastoma cells and protects neuronal cells from neurotoxins. To test this, SH-SY5Y human neuroblastoma cells were used, which can be induced into neuron-like phenotype by NGF treatment. This is an established method for measuring neurite growth-promoting activity in vitro in Dr. Gold's lab (Gold et al., Neurosignals. 13:122-129, 2004; Gold et al., Exp. Neurol. 147:269-278, 1997). […] Representative micrographs at 168 hours for vehicle (control), NGF (10 ng/ml), and NGF (10 ng/ml) plus A9 (100 nM) are shown in FIG. 5B.

ERK [2] = settings: NS20Y cells; previous study; cited from earlier work

| Compound | Effect of inhibitor pretreatment on A9-stimulated ERK activation (ERK [1]) | ERK activation (ERK [1]) | other results |
| --- | --- | --- | --- |
| N#CC(C#N)=Cc1cc(O)c(O)c(O)c1 [AG82] | did not prevent the effect of A9 | did not stimulate ERK | – |
| N#CC(=Cc1ccc2[nH]ccc2c1)C(N)=C(C#N)C#N [AG370] | – | moderate stimulation of ERK; also recorded: little or no effect | – |
| CC(C)(C)c1cc(/C=C(\C#N)C(N)=S)cc(C(C)(C)C)c1O [AG879] | – | little or no effect | ERK stimulation (ERK [1]; at 0.1 μM): moderate stimulation of ERK; ERK stimulation (ERK [1]; at 1 μM): showed no effect |
| Cc1cc2ncc(-c3ccccc3)nc2cc1C [AG1295] | – | did not stimulate ERK; also recorded: little or no effect | – |
| CN(C)CCCn1cc(C2=C(c3c[nH]c4ccccc34)C(=O)NC2=O)c2ccccc21 [BisI, bisindolylmaleimide I] | failed to prevent A9-stimulated ERK activity | – | IC50 (PKCζ): 5.8 µM |
| COc1cccc(-c2cc(=O)c3ccccc3o2)c1N [PD98059, reference compound] | prevented A9 from stimulating ERK activation | – | Effect of MEK inhibitor on A9-induced neurite outgrowth (SH-SY5Y cells; SH-SY5Y cells): did inhibit A9-induced neurite outgrowth |
| CC(C)(C)n1nc(-c2ccc(Cl)cc2)c2c(N)ncnc21 [PP2] | failed to prevent A9-stimulated ERK activity | – | Block of ERK activation induced by quinpirole (ERK [2]): block ERK activation induced by quinpirole |
| CN[C@@H]1C[C@H]2O[C@@](C)([C@@H]1OC)n1c3ccccc3c3c4c(c5c6ccccc6n2c5c31)C(=O)NC4 [stauosporine] | prevented A9 from stimulating ERK activation | – | – |
| NGF: nerve growth factor | – | – | Development of axonal-like processes (SH-SY5Y cells; SH-SY5Y, NGF 10 ng/ml alone): developed long axonal-like processes |
